# Source: ChEMBL document CHEMBL1146758, “Design, synthesis and structure-activity relationship studies of novel indazole analogues as DNA gyrase inhibitors with Gram-positive antibacterial activity” (Bioorg Med Chem Lett, 2004)
# pIC50: −log10 of the molar value.
# Assays:
# Staphylococcus aureus [1] = assay: Inhibitory activity against Staphylococcus aureus KMP9; format: functional
# DNA gyrase [2] = biological target: DNA gyrase (Escherichia coli, UniProt P0AES4+P0AES6); assay: (§1) Inhibitory activity against Escherichia coli DNA gyrase; format: protein-complex assay
# Staphylococcus aureus [3] = assay: Inhibitory activity against Staphylococcus aureus FDA 209P; format: functional
# Enterococcus faecalis [4] = assay: Inhibitory activity against Enterococcus faecalis KU 1777; format: functional
# Enterococcus faecalis [5] = assay: Inhibitory activity against Enterococcus faecalis ATCC 29212; format: functional
# DNA topoisomerase II [6] = biological target: T1, DNA topoisomerase II (Homo sapiens, UniProt P11388+Q02880); assay: Inhibitory activity against human DNA topoisomerase II; format: protein assay
# Nucleic Acid [7] = assay: Inhibitory activity against Escherichia coli DNA topoisomerase IV; format: nucleic-acid assay
# DNA gyrase [8] = biological target: DNA gyrase (Escherichia coli, UniProt P0AES6+P0AES4); assay: as §1; format: protein-complex assay
# DNA topoisomerase II [9] = biological target: T1, DNA topoisomerase II; assay: Human DNA topoisomerase II relaxation activity was determined; format: protein assay
# Nucleic Acid [10] = assay: Escherichia coli DNA topoisomerase IV decatenation activity was determined; format: nucleic-acid assay
# [11] = Staphylococcus aureus, read-out: MIC
# [12] = Enterococcus faecalis, read-out: MIC
# [13] = Enterococcus faecalis, ATCC 29212, read-out: MIC
Structure (SMILES),MIC (Staphylococcus aureus [1]; [11]),pIC50 (DNA gyrase [2]),MIC (Staphylococcus aureus [3]; [11]),MIC (Enterococcus faecalis [4]; [12]),MIC (Enterococcus faecalis [5]; [13]),MIC (Staphylococcus aureus [1]),pIC50 (DNA gyrase [8]),MIC (Staphylococcus aureus [3]),MIC (Enterococcus faecalis [5]),IC50 (DNA topoisomerase II [9]),IC50 (Nucleic Acid [10]),MIC (Enterococcus faecalis [4]),IC50 (DNA topoisomerase II [6]),IC50 (Nucleic Acid [7])
c1ccc(COc2ccc(-c3cc(C4CCNCC4)[nH]n3)cc2)cc1,64 µg/mL,3.42,64 µg/mL,64 µg/mL,64 µg/mL,–,–,–,–,–,–,–,200 µg/mL,128 µg/mL
COC(=O)C1CCCC(NCc2cc(/C=C/c3ccc(Cl)c(Cl)c3)[nH]n2)C1 (configuration not stated),8 µg/mL,4.41,4 µg/mL,16 µg/mL,16 µg/mL,–,–,–,–,–,–,–,–,–
COC(=O)C1CCCC(NCc2cc(/C=C/c3cn(C)c4ccc(Cl)cc34)[nH]n2)C1 (stereo in doubt; 7ba),–,–,–,–,–,8 µg/mL,5.63,8 µg/mL,32 µg/mL,–,–,–,–,–
Cn1cc(/C=C/c2cc(C3CCNCC3)nn2-c2cccc(Cl)c2)c2cc(Cl)ccc21,1 µg/mL,4.51,1 µg/mL,2 µg/mL,2 µg/mL,–,–,–,–,> 400 µg/mL,8 µg/mL,–,–,–
COC(=O)C1CCCC(NCc2cc(/C=C\c3ccc(Cl)c(Cl)c3)[nH]n2)C1 (configuration not stated),8 µg/mL,4.41,4 µg/mL,16 µg/mL,16 µg/mL,–,–,–,–,–,–,–,–,–
COC(=O)C1CCCC(NCc2cc(/C=C/c3cn(C)c4ccc(Cl)cc34)[nH]n2)C1 (stereo in doubt; 7bb),16 µg/mL,5.63,16 µg/mL,32 µg/mL,64 µg/mL,–,–,–,–,–,–,–,–,–
Clc1cccc(-n2nc(C3CCNCC3)cc2/C=C/c2c[nH]c3ccc(Cl)cc23)c1,1 µg/mL,4.49,1 µg/mL,2 µg/mL,2 µg/mL,–,–,–,–,> 400 µg/mL,8 µg/mL,–,–,–
CO[C@@H]1[C@@H](OC(N)=O)[C@@H](O)[C@H](Oc2ccc3c(O)c(NC(=O)c4ccc(O)c(CC=C(C)C)c4)c(=O)oc3c2C)OC1(C)C [NOVOBIOCIN],0.25 µg/mL,–,0.25 µg/mL,2 µg/mL,2 µg/mL,–,–,–,–,–,–,–,> 400 µg/mL,25 µg/mL
CCOC(=O)CCCNc1[nH]nc2cccc(OCc3ccc(C(C)(C)C)cc3)c12,16 µg/mL,4.41,16 µg/mL,16 µg/mL,16 µg/mL,–,–,–,–,–,–,–,–,–
COC(=O)C1CCCC(Nc2[nH]nc3cccc(OCc4ccc(F)c(F)c4)c23)C1 (configuration not stated),128 µg/mL,4.41,128 µg/mL,128 µg/mL,128 µg/mL,–,–,–,–,–,–,–,–,–
COC(=O)C1CCCC(Nc2[nH]nc3cccc(OCc4ccc(C(C)(C)C)cc4)c23)C1 (configuration not stated),4 µg/mL,5.04,4 µg/mL,4 µg/mL,8 µg/mL,–,–,–,–,–,–,–,–,–
COC(=O)C1CCCC(Nc2[nH]nc3cccc(OCc4cnc(Cl)c(Cl)c4)c23)C1 (configuration not stated),> 128 µg/mL,3.85,> 128 µg/mL,> 128 µg/mL,> 128 µg/mL,–,–,–,–,–,–,–,–,–
COC(=O)C1CCCC(Nc2[nH]nc3cccc(OCc4ccc(Cl)c(Cl)c4)c23)C1 (configuration not stated),4 µg/mL,5.65,4 µg/mL,4 µg/mL,4 µg/mL,–,–,–,–,–,–,–,–,–
COC(=O)C1CCCC(Nc2[nH]nc3cccc(OCc4ccc(Cl)cc4)c23)C1 (configuration not stated),32 µg/mL,4.41,32 µg/mL,32 µg/mL,64 µg/mL,–,–,–,–,–,–,–,–,–
COC(=O)C1CCCC(NCc2n[nH]c3cccc(OCc4ccc(Cl)c(Cl)c4)c23)C1 (configuration not stated),4 µg/mL,5.66,4 µg/mL,4 µg/mL,4 µg/mL,–,–,–,–,> 400 µg/mL,> 128 µg/mL,–,–,–
Cc1cc(=O)oc2cc(CCc3n[nH]c4cccc(OCc5ccc(C(C)(C)C)cc5)c34)ccc12,> 128 µg/mL,6.27,> 128 µg/mL,> 128 µg/mL,> 128 µg/mL,–,–,–,–,–,–,–,> 400 µg/mL,> 128 µg/mL
COC(=O)C1CCCC(NCc2cc(/C=C\c3cn(C)c4ccc(Cl)cc34)[nH]n2)C1 (stereo in doubt; 8ba),8 µg/mL,5.63,4 µg/mL,–,–,–,–,–,8 µg/mL,–,–,8 µg/mL,–,–
COC(=O)C1CCCC(Nc2[nH]nc3cccc(OCc4ccccc4)c23)C1 (configuration not stated),64 µg/mL,4.68,64 µg/mL,64 µg/mL,64 µg/mL,–,–,–,–,–,–,–,–,–
COC(=O)C1CCCC(NCc2cc(/C=C\c3cn(C)c4ccc(Cl)cc34)[nH]n2)C1 (stereo in doubt; 8bb),–,5.93,–,–,–,16 µg/mL,–,8 µg/mL,64 µg/mL,–,–,32 µg/mL,–,–

# Now from value to compound, other results behind:
MIC (Staphylococcus aureus [1]; [11]),pIC50 (DNA gyrase [2]),MIC (Staphylococcus aureus [3]; [11]),MIC (Enterococcus faecalis [4]; [12]),MIC (Enterococcus faecalis [5]; [13]),MIC (Staphylococcus aureus [1]),pIC50 (DNA gyrase [8]),MIC (Staphylococcus aureus [3]),MIC (Enterococcus faecalis [5]),IC50 (DNA topoisomerase II [9]),IC50 (Nucleic Acid [10]),MIC (Enterococcus faecalis [4]),Structure (SMILES),IC50 (DNA topoisomerase II [6]),IC50 (Nucleic Acid [7])
64 µg/mL,4.74,64 µg/mL,64 µg/mL,64 µg/mL,–,–,–,–,–,–,–,COC(=O)[C@@H]1C[C@H](NCc2n[nH]c3cccc(OCc4ccc(C(C)(C)C)cc4)c23)CN1,–,–
> 128 µg/mL,4.08,> 128 µg/mL,> 128 µg/mL,> 128 µg/mL,–,–,–,–,–,–,–,CC(C)(C)c1ccc(COc2cccc3[nH]nc(NCCCC(=O)O)c23)cc1,–,–
64 µg/mL,4.11,32 µg/mL,32 µg/mL,64 µg/mL,–,–,–,–,–,–,–,CC(C)(C)c1ccc(COc2cccc3[nH]nc(CN[C@H]4CN[C@H](CO)C4)c23)cc1,–,–
64 µg/mL,3.70,32 µg/mL,16 µg/mL,32 µg/mL,–,–,–,–,–,–,–,CNCc1n[nH]c2cccc(OCc3ccc(C(C)(C)C)cc3)c12,–,–
32 µg/mL,4.75,16 µg/mL,16 µg/mL,16 µg/mL,–,–,–,–,–,–,–,CCOC(=O)C1CCCN(Cc2n[nH]c3cccc(OCc4ccc(C(C)(C)C)cc4)c23)C1 (configuration not stated),–,–
64 µg/mL,3.81,64 µg/mL,64 µg/mL,64 µg/mL,–,–,–,–,–,–,–,CC(C)(C)c1ccc(COc2cccc3[nH]nc(CN[C@@H]4CN[C@H](CO)C4)c23)cc1,–,–
> 128 µg/mL,5.05,> 128 µg/mL,> 128 µg/mL,> 128 µg/mL,–,–,–,–,–,–,–,COC(=O)C1CN(Cc2n[nH]c3cccc(OCc4ccc(C(C)(C)C)cc4)c23)CCC1=O (configuration not stated),–,–
64 µg/mL,4.43,32 µg/mL,32 µg/mL,64 µg/mL,–,–,–,–,–,–,–,COC(=O)C1CCCN(Cc2n[nH]c3cccc(OCc4ccc(C(C)(C)C)cc4)c23)C1 (configuration not stated),–,–
128 µg/mL,4.74,64 µg/mL,64 µg/mL,128 µg/mL,–,–,–,–,–,–,–,COC(=O)[C@@H]1C[C@@H](NCc2n[nH]c3cccc(OCc4ccc(C(C)(C)C)cc4)c23)CN1,–,–
4 µg/mL,5.05,4 µg/mL,4 µg/mL,8 µg/mL,–,–,–,–,> 400 µg/mL,> 128 µg/mL,–,COC(=O)C1CCCC(NCc2n[nH]c3cccc(OCc4ccc(C(C)(C)C)cc4)c23)C1 (configuration not stated),–,–
32 µg/mL,4.43,32 µg/mL,32 µg/mL,32 µg/mL,–,–,–,–,–,–,–,COC(=O)C1CCN(Cc2n[nH]c3cccc(OCc4ccc(C(C)(C)C)cc4)c23)CC1,–,–
32 µg/mL,3.77,16 µg/mL,16 µg/mL,32 µg/mL,–,–,–,–,–,–,–,CC(C)(C)c1ccc(COc2cccc3[nH]nc(CN4CCNCC4)c23)cc1,–,–
